These results are taken from patent US9776972B2, “Pyrazole derivatives as arginine methyltransferase inhibitors and uses thereof” (priority 2013, dated 2017).

One test concerns the target T1, human PRMT6 (Homo sapiens, UniProt Q96LA8).
T1 construct: Flag-PRMT6-His; made in house; host or cells: HEK 293F cells (BacMam baculovirus)
Kind of test: PRMT6 Biochemical Assay (3H-SAM Flashplate, peptide substrate). Conditions: Biochemical IC50 PRMT6, single experiment or average of multiple experiments. Summed up:
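Methylation of a biotin-tagged H4 (36-50) peptide by ³H-SAM was quantified by streptavidin Flashplate capture and scintillation counts (dpm/cpm). Before SAM/peptide addition, Flag-PRMT6-His was preincubated with compound for 30 min at room temperature in Bicine buffer, pH 7.6.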

The target in another test is human PRMT8 (Homo sapiens, UniProt Q9NR22). Kind of test: PRMT8 Biochemical Assay (3H-SAM Flashplate, peptide substrate). The note with it: single experiment or average of multiple experiments. The essentials: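 Methylation of a biotin-tagged histone H4 peptide (residues 31-45) by recombinant PRMT8 was measured as 3H transfer from 3H-SAM, after a 30 min room-temperature compound preincubation in Bicine buffer pH 7.6. Reactions were quenched with unlabelled SAM to 400 uM final, then bound counts were read by streptavidin Flashplate. IC50 came from a Hill fit of % inhibition relative to max and SAH min controls.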

SMILES strings stand for the structures.

human PRMT8, sequence (Q9NR22 whole entry, the tested form may be a part): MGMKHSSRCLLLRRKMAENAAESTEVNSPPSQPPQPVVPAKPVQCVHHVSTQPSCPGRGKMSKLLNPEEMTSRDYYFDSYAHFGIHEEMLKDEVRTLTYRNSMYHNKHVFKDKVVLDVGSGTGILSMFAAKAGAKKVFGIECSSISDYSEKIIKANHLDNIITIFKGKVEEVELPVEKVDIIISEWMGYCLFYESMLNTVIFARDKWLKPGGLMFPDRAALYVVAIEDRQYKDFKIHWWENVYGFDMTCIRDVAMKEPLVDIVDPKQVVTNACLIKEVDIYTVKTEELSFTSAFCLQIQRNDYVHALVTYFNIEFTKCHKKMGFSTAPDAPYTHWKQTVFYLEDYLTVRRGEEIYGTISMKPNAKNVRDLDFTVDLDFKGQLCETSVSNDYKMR
T1 sequence (Q96LA8 with tags, fused parts or gaps): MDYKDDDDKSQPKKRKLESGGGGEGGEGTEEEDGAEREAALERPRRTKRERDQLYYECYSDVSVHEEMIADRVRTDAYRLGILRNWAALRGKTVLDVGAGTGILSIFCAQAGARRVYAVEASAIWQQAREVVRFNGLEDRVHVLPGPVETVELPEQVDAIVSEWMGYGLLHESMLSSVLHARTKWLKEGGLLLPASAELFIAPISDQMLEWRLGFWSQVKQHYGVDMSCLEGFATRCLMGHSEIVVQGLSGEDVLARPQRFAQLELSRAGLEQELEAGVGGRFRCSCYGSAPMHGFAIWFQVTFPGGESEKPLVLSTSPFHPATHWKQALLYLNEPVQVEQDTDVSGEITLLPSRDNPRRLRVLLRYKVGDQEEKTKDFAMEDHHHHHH

Turning to `CN(CCN)Cc1c[nH]nc1-c1ccc(Oc2cccc(F)c2)cc1` [Compound 205], the IC50 against human PRMT6 worked out at 1.53 nM; against human PRMT8 it was 286 nM.

As to `CNCCN(C)Cc1cn(C)nc1-c1ccc(OC(C)C)c(Cl)c1` [Compound 206], the results for the IC50 at human PRMT6 and against human PRMT8 were 21.4 nM and 349 nM, respectively.

Regarding `CNCCN(C)Cc1cn(C)nc1-c1ccc(Oc2ccccc2)cc1` [Compound 207], the IC50 is 3.3 nM against human PRMT6 and 627 nM against human PRMT8.

For `CNCCN(C)Cc1cnn(C)c1-c1ccc(Oc2ccccc2)cc1` [Compound 208], the values for the IC50 on human PRMT6 and on human PRMT8 were 2.93 nM and 279 nM, respectively.

Turning to `CNCCN(C)Cc1c[nH]nc1-c1ccc(OCCCOC)cc1` [Compound 209], the IC50 is 4.05 nM against human PRMT6 and 483 nM against human PRMT8.

As to `CNCCN(C)Cc1n[nH]cc1-c1ccc(OC(C)C)c(F)c1` [Compound 210], the IC50 against human PRMT6 came out at 16.1 nM; on human PRMT8 it was 182 nM.

For `CC(C)Oc1ccc(-c2c[nH]nc2CN(C)CCN)cc1Cl` [Compound 211], the IC50 is 20.5 nM on human PRMT6 and 117 nM against human PRMT8.

With `CNCCN(C)Cc1n[nH]cc1-c1ccc(OC(C)C)c(Cl)c1` [Compound 212], the IC50 against human PRMT6 was 9.07 nM; against human PRMT8, 40.3 nM.

Turning to `CNCCN(C)Cc1c[nH]nc1-c1ccc(Oc2ccccc2)c(C#N)c1` [Compound 221], the 50% inhibitory concentration (IC50) against human PRMT6 worked out at 6.72 nM; on human PRMT8, 328 nM.

As for `CN(CCN)Cc1c(-c2ccc(C#N)cc2)ncn1C` [Compound 222], the IC50 was 1160 nM at human PRMT6 and 8880 nM against human PRMT8.

`CN(CCN)Cc1c[nH]nc1-c1ccc(Oc2ccccc2)c(F)c1` [Compound 224, N^1-((3-(3-fluoro-4-phenoxyphenyl)-1H-pyrazol-4-yl)methyl)-N^1-methylethane-1,2-diamine]: the values for the IC50 on human PRMT6 and at human PRMT8 were 1.98 nM and 346 nM, respectively.

On to `CN(CCN)Cc1c[nH]nc1-c1ccc(Oc2ccc(F)cc2)cc1` [Compound 225, N^1-((3-(4-(4-fluorophenoxy)phenyl)-1H-pyrazol-4-yl)methyl)-N^1-methylethane-1,2-diamine], for which the 50% inhibitory concentration (IC50) against human PRMT6 stood at 1.33 nM; against human PRMT8, 35.8 nM.

As for `CN(CCN)Cc1c[nH]nc1-c1ccc(Oc2ccccc2)c(C(=O)N(C)C)c1` [Compound 226], the figures for the IC50 on human PRMT6 and on human PRMT8 were 13.8 nM and 7250 nM, respectively.

Take `CNC(=O)c1cc(-c2n[nH]cc2CN(C)CCN)ccc1Oc1ccccc1` [Compound 227]: the 50% inhibitory concentration (IC50) against human PRMT6 turned out to be 11.5 nM; at human PRMT8 it was 660 nM.

With `CNCCN(C)Cc1c[nH]nc1-c1ccc(OCCCOC)c(Cl)c1` [Compound 228], the IC50 was determined as 8.22 nM against human PRMT6 and 316 nM against human PRMT8.
